The experiment is described as follows: hexadecane/PBD-BODIPY co-autoxidation, inhibition by antioxidant. The settings on record: hexadecane/PBD-BODIPY co-autoxidations at 70° C. in PhCl. How it is done: FIG. 1 is a graph depicting co-autoxidation of 2.8M hexadecane and 10 μM PBD-BODIPY at 70° C. in PhCl, initiated by 87 mM tBu2O2, and inhibited by 0.6 μM 1, 2, or 9.
Table 1. […] Relative to other antioxidants, autoxidation was inhibited poorly in the catalytic phase. Dye consumption prevented accurate determination of the stoichiometry.
For `COc1ccc2c(n1)Sc1cccnc1N2` [Compound 9, 3-Methoxy-4,9-Diazaphenothiazine], the “Inhibition rate constant kinh” value was “(5.6 ± 0.3) × 10^5 M^−1s^−1” and the Stoichiometry n is 15 ± 2.

With `CCN(CC)c1ncc2c(n1)Nc1ccccc1S2` [Compound 7, 2-Diethylamino-1,3-Diazaphenothiazine], the “Inhibition rate constant kinh” value was “(2.0 ± 0.1) × 10^5 M^−1s^−1” and the Stoichiometry n is listed as 4 ± 0.4.

Turning to `CCCCCCCc1nc(C)c2c(n1)Nc1ccccc1O2` [Compound 5, 2-Heptyl-4-methyl-1,3-Diazaphenoxazine], the “Inhibition rate constant kinh” value was “(9.0 ± 0.3) × 10^5 M^−1s^−1” and the Stoichiometry n turned out to be 109 ± 4.

Regarding `c1ccc2c(c1)Nc1ccncc1O2` [Compound 3, 3-Azaphenoxazine], the “Inhibition rate constant kinh” value was “(1.3 ± 0.2) × 10^5 M^−1s^−1” and the Stoichiometry n was determined as 183 ± 8.

Turning to `c1ccc2c(c1)Nc1ncccc1S2` [Compound 2, 1-Azaphenothiazine], the “Inhibition rate constant kinh” value is reported as “(2.8 ± 0.1) × 10^5 M^−1s^−1” and the Stoichiometry n came to 10 ± 2.

Turning to `CCCCCCCc1nc(C)c2c(n1)Nc1ccccc1S2` [Compound 6, 2-Heptyl-4-methyl-1,3-Diazaphenothiazine], the “Inhibition rate constant kinh” value is “(3.3 ± 0.2) × 10^5 M^−1s^−1” and the “Turnover in the catalytic phase (footnote a to n)” value was “Inefficient turnover”.

Consider `CCN(CC)c1ncc2c(n1)Nc1ccccc1S2` [Compound 10, 2-Diethylamino-1,3-Diazaphenothiazine], for which the “Inhibition rate constant kinh” value was “(2.4 ± 0.4) × 10^6 M^−1s^−1” and the Stoichiometry n is recorded as 11 ± 0.7.

As to `c1ccc2c(c1)Nc1ncccc1O2` [Compound 1, 1-Azaphenoxazine], the “Inhibition rate constant kinh” value was “(6.8 ± 0.2) × 10^5 M^−1s^−1” and the Stoichiometry n is listed as 50 ± 1.

Regarding `c1ccc2c(c1)Nc1nc(N3CCCC3)ncc1S2` [Compound 8, 2-(Pyrrolidn-1-yl)-1,3-Diazaphenothiazine], the “Inhibition rate constant kinh” value is recorded as “(2.6 ± 0.1) × 10^5 M^−1s^−1” and the Stoichiometry n is reported as 6 ± 0.1.

For `c1ccc2c(c1)Nc1ccncc1S2` [Compound 4, 3-Azaphenothiazine], the “Inhibition rate constant kinh” value is “(5.9 ± 0.5) × 10^5 M^−1s^−1” and the Stoichiometry n was 46 ± 3.

The values above are taken from patent US11512262B2, “Azaphenothiazines and azaphenoxazines as antioxidants” (University of Ottawa, priority 2017, dated 2022).
